Source: patent US20070129344A1, “Bicyclic 6-alkylidene-penem beta-lactamase inhibitors and beta-lactam antibiotic combination: a broad spectrum antibiotic” (priority 2005, published 2007)
≈ marks a conversion by molar mass, not a printed value. Counter-ions that a name gives are not always drawn. Like-named read-outs stand apart in the source and are kept apart here.

Legend:
[1] = test system: K. oxytoca GC 7627 TEM-1 K1 KPC-2; experiment: MIC microbroth dilution; β-lactamase class A, A (Cb'ase); format: cell-based
Description: (§1) The in vitro activities of the antibiotics were determined by the microbroth dilution method as recommended by the National Committee for Clinical Laboratory Standards (NCCLS). (NCCLS. 2000. Methods for Dilution Antimicrobial Susceptibility Tests for Bacteria That Grow Aerobically; Approved Standards: M7-A5, vol. 19. National Committee for Clinical Laboratory Standards, Villanova, Pa.). Mueller-Hinton II broth (MHBII)(BBL Cockeysville, Md.), was used for the testing procedure. […]. The plates were incubated for 18-22 hours at 35° C. in ambient air.

E. coli GC 2805 (CcrA) = experiment: MIC microbroth dilution; β-lactamase class B; format: cell-based
Description: as §1

[2] = test system: P. aeruginosa GC 1764 (AmpC); experiment: MIC microbroth dilution; β-lactamase class C; format: cell-based
Description: as §1

[3] = test system: E. cloacae GC 1712 AmpC-inducible; experiment: MIC microbroth dilution; β-lactamase class C; format: cell-based
Description: as §1

E. coli GC 2894 (AmpC) = experiment: MIC microbroth dilution; β-lactamase class C; format: cell-based; settings: Escherichia coli
Description: as §1

[4] = test system: E. cloacae GC 1477 (AmpC); experiment: MIC microbroth dilution; β-lactamase class C; format: cell-based; settings: Enterobacter cloacae
Description: as §1

[5] = test system: E. cloacae PT 967 Inducible AmpC; experiment: MIC microbroth dilution; β-lactamase class C; format: cell-based
Description: as §1

[6] = test system: A. baumannii GC 7684 AmpC, AmpC; experiment: MIC microbroth dilution; β-lactamase class C; format: cell-based
Description: as §1

[7] = test system: S. marcescens PT 696 Inducible AmpC; experiment: MIC microbroth dilution; β-lactamase class C; format: cell-based; settings: Serratia marcescens
Description: as §1

[8] = test system: K. pneumoniae GC 7820 Act 1; experiment: MIC microbroth dilution; β-lactamase class C; format: cell-based; settings: Klebsiella pneumoniae, GC7820ACT1, K. pneumoniae GC 7820, read-out: MIC
Description: as §1

[9] = test system: K. pneumoniae GC 7823 Fox 5; experiment: MIC microbroth dilution; β-lactamase class C; format: cell-based; settings: Klebsiella pneumoniae, GC7823FOX5, K. pneumoniae GC 7823, read-out: MIC
Description: as §1

[10] = test system: E. cloacae GC 4142 (AmpC); experiment: MIC microbroth dilution; β-lactamase class C; format: cell-based; settings: Enterobacter cloacae
Description: as §1

[11] = test system: C. freundii GC 4164 Inducible AmpC; experiment: MIC microbroth dilution; β-lactamase class C; format: cell-based
Description: as §1

[12] = test system: E. cloacae PT 1494 Inducible AmpC; experiment: MIC microbroth dilution; β-lactamase class C; format: cell-based
Description: as §1

[13] = test system: A. baumannii GC 7687 AmpC; experiment: MIC microbroth dilution; β-lactamase class C; format: cell-based
Description: as §1

[14] = test system: P. aeruginosa GC 3153 Inducible AmpC; experiment: MIC microbroth dilution; β-lactamase class C; format: cell-based
Description: as §1

E. cloacae GC 1475 (P99) = experiment: MIC microbroth dilution; β-lactamase class C; format: cell-based
Description: as §1

E. coli GC 6539 CMY-2 = experiment: MIC microbroth dilution; β-lactamase class C; format: cell-based
Description: as §1

[15] = test system: E. aerogenes 1697-MP GC 7845 AmpC; experiment: MIC microbroth dilution; β-lactamase class C; format: cell-based; settings: E. aerogenes GC 7845
Description: as §1

[16] = test system: K. pneumoniae GC 7821 DHA 1; experiment: MIC microbroth dilution; β-lactamase class C; format: cell-based; settings: Klebsiella pneumoniae, GC7821DHA1, K. pneumoniae GC 7821, read-out: MIC
Description: as §1

[17] = test system: K. pneumoniae GC 7632 TEM-1 KPC-2, SHV-7, SHV-12; experiment: MIC microbroth dilution; β-lactamase class A, A (Cb'ase), A (ESBL); format: cell-based
Description: as §1

[18] = test system: S. typhimurium GC 4198 SHV-1 CTX-M-5; experiment: MIC microbroth dilution; β-lactamase class A, A (ESBL); format: cell-based
Description: as §1

class C enzyme AmpC = class C enzyme AmpC (Enterobacter cloacae, UniProt P05364); experiment: β-Lactamase inhibition IC50 (nitrocefin, spectrophotometric); format: biochemical
class C enzyme AmpC, sequence (P05364 21-381): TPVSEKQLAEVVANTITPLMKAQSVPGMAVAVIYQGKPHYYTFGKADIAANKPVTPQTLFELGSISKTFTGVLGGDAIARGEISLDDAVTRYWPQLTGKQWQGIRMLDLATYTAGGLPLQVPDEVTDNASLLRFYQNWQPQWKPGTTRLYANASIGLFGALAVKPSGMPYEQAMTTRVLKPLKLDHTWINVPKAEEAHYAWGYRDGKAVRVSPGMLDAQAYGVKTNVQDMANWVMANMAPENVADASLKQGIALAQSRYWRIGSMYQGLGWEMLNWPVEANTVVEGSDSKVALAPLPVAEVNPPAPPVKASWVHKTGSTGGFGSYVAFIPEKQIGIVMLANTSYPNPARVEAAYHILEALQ
Description: (§2) β-Lactamase inhibitory activity of the penem inhibitors was determined spectrophotometrically as described by Bush et al., [Bush, K., Macalintal, C., Rasmussen, B. A., Lee, V. and Yang, Y. Antimicrobial Agents and Chemotherapy 1993, 37, 851]. Homogeneously purified class A β-lactamases TEM-1 from E. coli and Imi-1 from Enterobacter cloacae, class B enzyme CcrA from Bacteroides fragilis and class C enzyme AmpC from Enterobacter cloacae were employed in the assay. The enzyme concentrations for TEM-1, Imi-1, CcrA and AmpC were 4.3, 7.1, 1.2 and 2.1 nM, respectively. A wide range of inhibitor concentrations were prepared in 50 mM PO4, pH 7.0 to include the possible IC50 values. The substrate used to initiate the enzyme reaction was nitrocefin at 50 μg/ml in the same buffer as the inhibitor. Initially the enzyme and inhibitor (20 μl each) were preincubated for 10 minutes at 25° C. prior to the addition of 160 μl volume of nitrocefin. Initial rates of hydrolysis were monitored for 5 minutes at 495 nm using a Molecular Devices Spectra Max 250 with kinetic protocol of SoftMax Program. Readings from the Spectra Max 250 were exported and transferred to Microsoft Excel. The percent of inhibition of each inhibitor concentration was calculated based on the control enzyme activity. The inhibitor concentration that caused a 50% reduction in the enzymatic activity (IC50) was determined graphically.

[19] = target: class A β-lactamase Imi-1 (Enterobacter cloacae, UniProt Q46991); experiment: as above; format: biochemical
class A β-lactamase Imi-1, sequence (Q46991 entry or part of it): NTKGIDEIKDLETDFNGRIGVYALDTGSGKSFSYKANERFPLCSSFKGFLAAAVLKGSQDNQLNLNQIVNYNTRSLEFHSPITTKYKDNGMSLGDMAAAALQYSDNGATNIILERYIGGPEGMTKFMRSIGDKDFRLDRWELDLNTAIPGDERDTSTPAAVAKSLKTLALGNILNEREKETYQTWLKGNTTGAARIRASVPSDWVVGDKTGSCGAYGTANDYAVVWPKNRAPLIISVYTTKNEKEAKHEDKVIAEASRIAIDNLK
Description: as §2

class B enzyme CcrA = class B enzyme CcrA (Bacteroides fragilis, UniProt P25910); experiment: as above; format: biochemical; settings: enzyme 1.2 nM, 10 min preincubation at 25° C., read-out: IC50 Class B Ccr
class B enzyme CcrA, sequence (P25910 19-249): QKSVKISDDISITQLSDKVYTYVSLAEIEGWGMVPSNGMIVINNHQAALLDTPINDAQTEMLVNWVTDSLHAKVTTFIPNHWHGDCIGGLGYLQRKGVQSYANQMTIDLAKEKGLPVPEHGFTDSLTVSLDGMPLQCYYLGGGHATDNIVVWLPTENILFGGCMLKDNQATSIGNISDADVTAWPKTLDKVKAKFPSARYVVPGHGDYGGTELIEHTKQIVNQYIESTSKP
Description: as §2

[20] = Cefepime alone, control of Compound 2 test
[21] = Pseudomonas aeruginosa, Cefepime alone, control of Compound 1 test, read-out: MIC
[22] = Enterobacter cloacae, Cefepime alone, control of Compound 1 test, read-out: MIC
[23] = Cefepime alone, control of Compound 1 test, read-out: MIC
[24] = Cefepime alone, control of Compound 2 test, read-out: MIC
[25] = Cefepime alone, control of Compound 1 test
[26] = Pseudomonas aeruginosa, Cefepime + 4 ug/ml Compound 2, read-out: MIC
[27] = Enterobacter cloacae, Cefepime + 4 ug/ml Compound 2, read-out: MIC
[28] = Cefepime + 4 ug/ml Compound 2, read-out: MIC

`CO/N=C(\C(=O)N[C@@H]1C(=O)N2C(C(=O)[O-])=C(C[N+]3(C)CCCC3)CS[C@H]12)c1csc(N)n1` [Cefepime, reference compound] showed an MIC ([1]; K. oxytoca GC 7627, Cefepime alone, control of Compound 2 test) of over 16 µg/mL, an MIC ([1]; Klebsiella oxytoca) of over 16 µg/mL and an MIC (E. coli GC 2805 (CcrA); E. coli GC 2805, Cefepime alone, control of Compound 2 test) of over 16 µg/mL. The MIC (E. coli GC 2805 (CcrA); Escherichia coli) was over 16 µg/mL, the MIC [2, 20] was 8 µg/mL (≈ 16.6 µM) and the MIC [2, 21] was 8 µg/mL (≈ 16.6 µM). For the same molecule, the MIC [3, 20] was 0.12 µg/mL (≈ 0.25 µM), the MIC [3, 22] was 0.12 µg/mL (≈ 0.25 µM) and the MIC (E. coli GC 2894 (AmpC); [23]) was 2 µg/mL (≈ 4.16 µM). For the same molecule, the MIC (E. coli GC 2894 (AmpC); [24]) was 4 µg/mL (≈ 8.32 µM), the MIC [4, 23] was 4 µg/mL (≈ 8.32 µM) and the MIC [4, 24] was 2 µg/mL (≈ 4.16 µM). For the same molecule, the MIC [5, 20] was 0.12 µg/mL (≈ 0.25 µM), the MIC [5, 22] was 0.12 µg/mL (≈ 0.25 µM) and the MIC ([6]; Acinetobacter baumannii, Cefepime alone, control of Compound 1 test, read-out: MIC) was 16 µg/mL (≈ 33.3 µM). The MIC [6, 20] was 16 µg/mL (≈ 33.3 µM), the MIC [7, 23] was 0.25 µg/mL (≈ 0.52 µM) and the MIC [7, 24] was 0.5 µg/mL (≈ 1.04 µM). For the same molecule, the MIC [8, 25] was 0.25 µg/mL (≈ 0.52 µM), the MIC [8, 20] was 0.5 µg/mL (≈ 1.04 µM) and the MIC [9, 25] was 0.5 µg/mL (≈ 1.04 µM). The MIC [9, 20] was 1 µg/mL (≈ 2.08 µM), the MIC [10, 23] was over 16 µg/mL and the MIC [10, 24] was 8 µg/mL (≈ 16.6 µM). The MIC [11, 20] was 1 µg/mL (≈ 2.08 µM), the MIC ([11]; Citrobacter freundii, Cefepime alone, control of Compound 1 test, read-out: MIC) was 1 µg/mL (≈ 2.08 µM) and the MIC [12, 20] was 0.25 µg/mL (≈ 0.52 µM). For the same molecule, the MIC [12, 22] was 0.25 µg/mL (≈ 0.52 µM), the MIC ([13]; Acinetobacter baumannii, GC7687AMPC, Cefepime alone, control of Compound 1 test, read-out: MIC) was 16 µg/mL (≈ 33.3 µM) and the MIC [13, 20] was 16 µg/mL (≈ 33.3 µM). It also gave an MIC [14, 20] of 16 µg/mL (≈ 33.3 µM), an MIC [14, 21] of 16 µg/mL (≈ 33.3 µM) and an MIC (E. cloacae GC 1475 (P99); [20]) of 2 µg/mL (≈ 4.16 µM). The MIC (E. cloacae GC 1475 (P99); [22]) was 2 µg/mL (≈ 4.16 µM), the MIC (E. coli GC 6539 CMY-2; [20]) was 2 µg/mL (≈ 4.16 µM) and the MIC (E. coli GC 6539 CMY-2; Escherichia coli, GC6539CMY2, Cefepime alone, control of Compound 1 test, read-out: MIC) was 2 µg/mL (≈ 4.16 µM). The MIC [15, 20] was 0.25 µg/mL (≈ 0.52 µM), the MIC ([15]; Klebsiella aerogenes, Cefepime alone, control of Compound 1 test, read-out: MIC) was 0.25 µg/mL (≈ 0.52 µM) and the MIC [16, 25] was 0.25 µg/mL (≈ 0.52 µM). For the same molecule, the MIC [16, 20] was 0.06 µg/mL (≈ 0.125 µM), the MIC [17, 20] was over 16 µg/mL and the MIC ([17]; Klebsiella pneumoniae, Cefepime alone, control of Compound 1 test, read-out: MIC) was over 16 µg/mL. The MIC ([18]; S. typhimurium GC 4198, Cefepime alone, control of Compound 2 test) was over 16 µg/mL and the MIC ([18]; Salmonella enterica, TYPHIMURIUM) was over 16 µg/mL.

Molecule `O=C(O)C1=CS[C@@H]2/C(=C\c3cn4c(n3)COCC4)C(=O)N12` [Compound 2, (5R), (6Z)-6-(5,6-Dihydro-8H-imidazo[2.1-c][1,4]oxazin-2-ylmethylene)-7-oxo-4-thia-1-azabicyclo[3.2.0]hept-2-ene-2-carboxylic Acid, Sodium Salt] has an IC50 (class C enzyme AmpC) of 2.2 nM, an IC50 [19] of 20 nM and an IC50 (class B enzyme CcrA) of 230 nM. It also gave an MIC [2, 26] of 1 µg/mL, an MIC [3, 27] of 0.12 µg/mL and an MIC (E. coli GC 2894 (AmpC); [28]) of 0.06 µg/mL. It also gave an MIC [4, 28] of 0.25 µg/mL, an MIC [5, 27] of 0.12 µg/mL and an MIC ([6]; Acinetobacter baumannii, Cefepime + 4 ug/ml Compound 2, read-out: MIC) of 8 µg/mL. The MIC [7, 28] was 0.06 µg/mL, the MIC ([8]; Cefepime + 4 ug/ml Compound 2) was 0.25 µg/mL and the MIC ([9]; Cefepime + 4 ug/ml Compound 2) was 0.12 µg/mL. For the same molecule, the MIC [10, 28] was 0.12 µg/mL, the MIC ([11]; Citrobacter freundii, Cefepime + 4 ug/ml Compound 2, read-out: MIC) was 0.12 µg/mL and the MIC [12, 27] was 0.06 µg/mL. It also gave an MIC ([13]; Acinetobacter baumannii, GC7687AMPC, Cefepime + 4 ug/ml Compound 2, read-out: MIC) of 16 µg/mL, an MIC [14, 26] of 8 µg/mL and an MIC (E. cloacae GC 1475 (P99); [27]) of 0.12 µg/mL. For the same molecule, the MIC (E. coli GC 6539 CMY-2; Escherichia coli, GC6539CMY2, Cefepime + 4 ug/ml Compound 2, read-out: MIC) was 0.06 µg/mL, the MIC ([15]; Klebsiella aerogenes, Cefepime + 4 ug/ml Compound 2, read-out: MIC) was 0.03 µg/mL and the MIC ([16]; Cefepime + 4 ug/ml Compound 2) was 0.03 µg/mL. It also gave an MIC ([17]; Klebsiella pneumoniae, Cefepime + 4 ug/ml Compound 2, read-out: MIC) of over 16 µg/mL.
